Data taken from ChEMBL document CHEMBL5291721, “A preclinical secondary pharmacology resource illuminates target-adverse drug reaction associations of marketed drugs” (Nat Commun, 2023).

Legend:
[1] = target: T1, Equilibrative nucleoside transporter 1 (Homo sapiens, UniProt Q99808)
T1 sequence (Q99808 whole entry): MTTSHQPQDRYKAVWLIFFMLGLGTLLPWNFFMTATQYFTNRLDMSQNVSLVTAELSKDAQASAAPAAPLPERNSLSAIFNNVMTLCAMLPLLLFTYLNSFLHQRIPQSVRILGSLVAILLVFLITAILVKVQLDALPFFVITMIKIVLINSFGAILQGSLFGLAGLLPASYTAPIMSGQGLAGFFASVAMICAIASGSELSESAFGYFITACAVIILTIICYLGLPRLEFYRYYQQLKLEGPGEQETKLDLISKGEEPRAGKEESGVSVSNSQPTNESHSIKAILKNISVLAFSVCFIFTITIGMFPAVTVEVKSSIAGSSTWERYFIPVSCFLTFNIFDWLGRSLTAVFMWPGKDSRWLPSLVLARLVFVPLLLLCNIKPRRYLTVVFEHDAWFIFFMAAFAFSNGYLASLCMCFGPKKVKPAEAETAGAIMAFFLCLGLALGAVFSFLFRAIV

[2] = target: Histamine H3 receptor (Homo sapiens, UniProt Q9Y5N1)
[3] = target: Motilin receptor (Homo sapiens, UniProt O43193)
[4] = target: Neuronal acetylcholine receptor subunit alpha-4 (Homo sapiens, UniProt P43681)
[5] = target: T2, Type-1 angiotensin II receptor (Homo sapiens, UniProt P30556)
T2 sequence (P30556 whole entry): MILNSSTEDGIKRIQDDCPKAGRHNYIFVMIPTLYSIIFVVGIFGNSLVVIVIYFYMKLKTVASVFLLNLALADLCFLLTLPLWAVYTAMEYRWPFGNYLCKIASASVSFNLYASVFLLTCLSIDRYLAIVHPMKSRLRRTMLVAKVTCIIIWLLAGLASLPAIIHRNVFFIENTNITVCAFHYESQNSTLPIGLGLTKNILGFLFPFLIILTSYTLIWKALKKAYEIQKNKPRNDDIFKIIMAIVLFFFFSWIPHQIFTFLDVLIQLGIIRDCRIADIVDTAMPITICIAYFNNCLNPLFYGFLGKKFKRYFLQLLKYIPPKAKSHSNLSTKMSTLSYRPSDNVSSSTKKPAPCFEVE

[6] = target: T3, Muscarinic acetylcholine receptor M1 (Homo sapiens, UniProt P11229); format: functional
T3 sequence (P11229 whole entry): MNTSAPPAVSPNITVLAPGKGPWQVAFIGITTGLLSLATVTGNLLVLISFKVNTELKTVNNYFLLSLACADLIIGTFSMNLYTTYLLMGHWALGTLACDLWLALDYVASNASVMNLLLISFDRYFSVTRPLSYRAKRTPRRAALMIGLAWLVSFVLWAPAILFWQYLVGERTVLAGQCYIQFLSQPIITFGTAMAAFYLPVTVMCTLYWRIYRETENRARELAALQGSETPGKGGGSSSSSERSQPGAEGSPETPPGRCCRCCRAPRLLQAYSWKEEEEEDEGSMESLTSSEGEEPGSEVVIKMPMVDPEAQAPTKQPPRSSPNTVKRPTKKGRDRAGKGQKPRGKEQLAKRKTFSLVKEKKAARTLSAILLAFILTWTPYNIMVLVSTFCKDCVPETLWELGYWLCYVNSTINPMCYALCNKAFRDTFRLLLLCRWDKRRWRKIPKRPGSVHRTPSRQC

[7] = target: 5-hydroxytryptamine receptor 2B (Homo sapiens, UniProt P41595); format: functional, cell-based
[8] = target: Kappa-type opioid receptor (Homo sapiens, UniProt P41145)
[9] = target: 5-hydroxytryptamine receptor 2A (Homo sapiens, UniProt P28223); format: functional, cell-based
[10] = target: Vasopressin V2 receptor (Homo sapiens, UniProt P30518)
[11] = target: T4, Alpha-2C adrenergic receptor (Homo sapiens, UniProt P18825); format: functional
T4 sequence (P18825 whole entry): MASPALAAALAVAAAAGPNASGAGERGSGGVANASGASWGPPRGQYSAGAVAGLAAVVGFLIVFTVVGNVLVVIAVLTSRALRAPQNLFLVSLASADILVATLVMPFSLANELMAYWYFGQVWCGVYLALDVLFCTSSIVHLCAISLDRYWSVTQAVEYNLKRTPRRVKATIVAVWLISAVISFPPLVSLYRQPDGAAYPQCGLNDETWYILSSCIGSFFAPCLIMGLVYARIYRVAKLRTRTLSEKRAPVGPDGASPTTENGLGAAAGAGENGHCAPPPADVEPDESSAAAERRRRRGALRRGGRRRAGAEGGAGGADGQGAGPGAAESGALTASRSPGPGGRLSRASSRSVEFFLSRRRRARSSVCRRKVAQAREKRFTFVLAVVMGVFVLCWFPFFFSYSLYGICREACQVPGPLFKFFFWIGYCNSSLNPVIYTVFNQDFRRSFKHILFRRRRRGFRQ

[12] = target: Vasopressin V1a receptor (Homo sapiens, UniProt P37288)
[13] = target: T5, 5-hydroxytryptamine receptor 1A (Homo sapiens, UniProt P08908); format: functional, cell-based
T5 sequence (P08908 whole entry): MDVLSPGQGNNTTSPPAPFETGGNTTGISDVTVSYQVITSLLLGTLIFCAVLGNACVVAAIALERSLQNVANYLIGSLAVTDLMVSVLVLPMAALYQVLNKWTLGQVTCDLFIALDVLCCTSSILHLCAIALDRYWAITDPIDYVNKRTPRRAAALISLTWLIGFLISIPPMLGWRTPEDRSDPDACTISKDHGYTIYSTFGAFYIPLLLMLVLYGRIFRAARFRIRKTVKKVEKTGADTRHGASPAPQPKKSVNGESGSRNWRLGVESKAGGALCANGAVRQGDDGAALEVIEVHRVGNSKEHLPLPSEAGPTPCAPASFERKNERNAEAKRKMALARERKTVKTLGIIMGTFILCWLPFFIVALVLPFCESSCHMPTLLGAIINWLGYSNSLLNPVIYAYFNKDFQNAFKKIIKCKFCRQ

[14] = target: D(1A) dopamine receptor (Homo sapiens, UniProt P21728)
[15] = target: T6, Prostaglandin G/H synthase 1 (Homo sapiens, UniProt P23219); format: functional
[16] = target: T6, Prostaglandin G/H synthase 1; format: functional; remark: listed apart in the source
[17] = target: D(3) dopamine receptor (Homo sapiens, UniProt P35462)
Further: assay procedure not described here.

T6 sequence (P23219 whole entry): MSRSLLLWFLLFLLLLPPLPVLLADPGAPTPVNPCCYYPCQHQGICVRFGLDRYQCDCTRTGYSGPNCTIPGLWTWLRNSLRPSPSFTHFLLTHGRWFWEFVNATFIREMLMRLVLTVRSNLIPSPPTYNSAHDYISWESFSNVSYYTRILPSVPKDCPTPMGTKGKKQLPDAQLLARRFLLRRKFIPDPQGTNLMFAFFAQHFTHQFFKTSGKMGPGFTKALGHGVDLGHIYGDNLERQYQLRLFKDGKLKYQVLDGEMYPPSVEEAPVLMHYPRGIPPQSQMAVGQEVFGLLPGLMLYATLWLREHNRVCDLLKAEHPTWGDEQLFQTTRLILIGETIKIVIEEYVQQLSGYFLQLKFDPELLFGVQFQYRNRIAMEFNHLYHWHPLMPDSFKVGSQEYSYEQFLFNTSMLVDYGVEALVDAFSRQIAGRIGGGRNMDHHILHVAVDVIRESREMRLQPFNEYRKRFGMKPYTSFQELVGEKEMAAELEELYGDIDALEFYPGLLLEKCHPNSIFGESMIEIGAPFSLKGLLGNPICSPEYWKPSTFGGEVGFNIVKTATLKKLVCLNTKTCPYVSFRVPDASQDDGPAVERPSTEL
Kappa-type opioid receptor, sequence (P41145 whole entry): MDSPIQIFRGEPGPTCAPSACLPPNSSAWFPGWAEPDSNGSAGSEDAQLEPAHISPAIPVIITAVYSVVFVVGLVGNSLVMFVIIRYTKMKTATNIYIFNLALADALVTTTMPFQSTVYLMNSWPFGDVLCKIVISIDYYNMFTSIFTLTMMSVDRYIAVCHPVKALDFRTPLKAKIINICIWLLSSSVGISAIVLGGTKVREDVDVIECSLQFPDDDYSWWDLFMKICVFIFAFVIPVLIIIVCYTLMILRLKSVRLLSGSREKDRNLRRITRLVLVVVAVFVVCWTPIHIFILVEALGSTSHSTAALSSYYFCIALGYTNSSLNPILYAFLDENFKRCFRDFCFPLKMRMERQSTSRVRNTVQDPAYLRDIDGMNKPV
D(1A) dopamine receptor, sequence (P21728 whole entry): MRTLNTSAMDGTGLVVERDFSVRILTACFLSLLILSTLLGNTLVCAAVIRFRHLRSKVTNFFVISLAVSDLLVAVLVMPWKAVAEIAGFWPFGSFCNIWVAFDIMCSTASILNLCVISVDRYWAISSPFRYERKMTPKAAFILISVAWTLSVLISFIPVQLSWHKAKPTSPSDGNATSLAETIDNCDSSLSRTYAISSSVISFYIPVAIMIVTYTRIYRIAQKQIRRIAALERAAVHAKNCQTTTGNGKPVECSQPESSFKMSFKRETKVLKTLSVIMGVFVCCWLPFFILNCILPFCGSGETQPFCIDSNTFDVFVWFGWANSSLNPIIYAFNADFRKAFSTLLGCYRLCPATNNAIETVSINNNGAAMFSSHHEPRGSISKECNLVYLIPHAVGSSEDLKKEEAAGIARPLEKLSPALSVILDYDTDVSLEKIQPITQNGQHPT
Motilin receptor, sequence (O43193 whole entry): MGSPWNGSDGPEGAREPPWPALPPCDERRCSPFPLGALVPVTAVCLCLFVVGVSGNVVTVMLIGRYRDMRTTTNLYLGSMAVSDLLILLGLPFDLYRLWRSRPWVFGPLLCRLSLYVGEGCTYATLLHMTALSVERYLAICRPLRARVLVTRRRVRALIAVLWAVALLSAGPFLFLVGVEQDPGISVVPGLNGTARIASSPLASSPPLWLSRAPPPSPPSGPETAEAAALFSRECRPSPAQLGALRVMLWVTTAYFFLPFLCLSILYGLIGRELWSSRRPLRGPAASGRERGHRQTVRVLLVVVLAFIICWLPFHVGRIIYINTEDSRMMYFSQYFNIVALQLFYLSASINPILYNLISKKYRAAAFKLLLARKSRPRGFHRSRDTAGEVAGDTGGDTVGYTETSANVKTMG
5-hydroxytryptamine receptor 2A, sequence (P28223 whole entry): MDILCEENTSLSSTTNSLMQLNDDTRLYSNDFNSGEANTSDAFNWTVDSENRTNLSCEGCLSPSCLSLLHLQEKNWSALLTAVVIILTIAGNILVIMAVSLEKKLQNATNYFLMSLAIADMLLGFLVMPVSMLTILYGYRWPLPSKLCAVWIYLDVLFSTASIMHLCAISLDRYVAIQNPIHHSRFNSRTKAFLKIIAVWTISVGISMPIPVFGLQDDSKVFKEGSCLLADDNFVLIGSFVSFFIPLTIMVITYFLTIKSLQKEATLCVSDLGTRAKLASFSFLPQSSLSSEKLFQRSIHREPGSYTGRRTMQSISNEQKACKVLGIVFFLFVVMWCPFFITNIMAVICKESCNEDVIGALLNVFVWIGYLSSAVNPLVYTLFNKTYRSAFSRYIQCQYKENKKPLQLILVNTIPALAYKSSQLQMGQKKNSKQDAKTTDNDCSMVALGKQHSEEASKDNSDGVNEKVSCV
Neuronal acetylcholine receptor subunit alpha-4, sequence (P43681 whole entry): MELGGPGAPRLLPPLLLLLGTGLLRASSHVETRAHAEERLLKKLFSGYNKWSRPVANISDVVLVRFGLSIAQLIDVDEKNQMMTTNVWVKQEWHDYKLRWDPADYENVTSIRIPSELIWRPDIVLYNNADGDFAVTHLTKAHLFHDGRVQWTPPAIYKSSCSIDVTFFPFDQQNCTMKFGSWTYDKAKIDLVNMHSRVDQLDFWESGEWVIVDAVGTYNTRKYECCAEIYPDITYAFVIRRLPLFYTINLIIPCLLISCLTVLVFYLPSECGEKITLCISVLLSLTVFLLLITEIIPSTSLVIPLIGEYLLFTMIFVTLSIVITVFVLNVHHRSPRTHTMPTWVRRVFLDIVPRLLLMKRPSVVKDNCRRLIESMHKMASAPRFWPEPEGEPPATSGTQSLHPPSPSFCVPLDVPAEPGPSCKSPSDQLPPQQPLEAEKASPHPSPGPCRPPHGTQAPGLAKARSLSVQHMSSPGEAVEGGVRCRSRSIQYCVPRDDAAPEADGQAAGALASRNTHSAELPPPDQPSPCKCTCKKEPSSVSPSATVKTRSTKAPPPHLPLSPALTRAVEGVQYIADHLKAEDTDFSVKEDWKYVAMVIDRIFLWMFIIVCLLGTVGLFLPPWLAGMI
Histamine H3 receptor, sequence (Q9Y5N1 whole entry): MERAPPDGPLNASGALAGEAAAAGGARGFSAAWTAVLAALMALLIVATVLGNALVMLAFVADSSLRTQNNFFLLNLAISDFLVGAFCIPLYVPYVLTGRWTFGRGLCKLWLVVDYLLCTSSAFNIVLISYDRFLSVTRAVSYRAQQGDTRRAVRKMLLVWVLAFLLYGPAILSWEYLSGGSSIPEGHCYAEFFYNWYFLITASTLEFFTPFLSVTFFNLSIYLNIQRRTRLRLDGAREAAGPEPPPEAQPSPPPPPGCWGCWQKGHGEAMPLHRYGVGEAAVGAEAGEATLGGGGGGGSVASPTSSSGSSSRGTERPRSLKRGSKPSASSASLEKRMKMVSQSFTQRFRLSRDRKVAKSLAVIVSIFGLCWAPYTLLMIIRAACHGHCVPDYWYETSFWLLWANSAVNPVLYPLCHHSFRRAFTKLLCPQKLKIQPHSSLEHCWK
Vasopressin V1a receptor, sequence (P37288 whole entry): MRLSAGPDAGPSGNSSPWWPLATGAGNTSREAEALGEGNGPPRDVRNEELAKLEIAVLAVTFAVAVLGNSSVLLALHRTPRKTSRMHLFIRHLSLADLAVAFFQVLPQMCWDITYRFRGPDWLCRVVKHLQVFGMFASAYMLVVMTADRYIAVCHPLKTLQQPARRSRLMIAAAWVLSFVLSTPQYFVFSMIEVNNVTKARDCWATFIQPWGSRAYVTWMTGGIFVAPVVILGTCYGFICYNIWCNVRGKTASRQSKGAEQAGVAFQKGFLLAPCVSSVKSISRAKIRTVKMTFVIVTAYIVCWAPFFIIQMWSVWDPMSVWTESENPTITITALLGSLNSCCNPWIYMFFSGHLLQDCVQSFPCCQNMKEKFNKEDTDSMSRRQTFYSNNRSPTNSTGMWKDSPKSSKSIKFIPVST
5-hydroxytryptamine receptor 2B, sequence (P41595 whole entry): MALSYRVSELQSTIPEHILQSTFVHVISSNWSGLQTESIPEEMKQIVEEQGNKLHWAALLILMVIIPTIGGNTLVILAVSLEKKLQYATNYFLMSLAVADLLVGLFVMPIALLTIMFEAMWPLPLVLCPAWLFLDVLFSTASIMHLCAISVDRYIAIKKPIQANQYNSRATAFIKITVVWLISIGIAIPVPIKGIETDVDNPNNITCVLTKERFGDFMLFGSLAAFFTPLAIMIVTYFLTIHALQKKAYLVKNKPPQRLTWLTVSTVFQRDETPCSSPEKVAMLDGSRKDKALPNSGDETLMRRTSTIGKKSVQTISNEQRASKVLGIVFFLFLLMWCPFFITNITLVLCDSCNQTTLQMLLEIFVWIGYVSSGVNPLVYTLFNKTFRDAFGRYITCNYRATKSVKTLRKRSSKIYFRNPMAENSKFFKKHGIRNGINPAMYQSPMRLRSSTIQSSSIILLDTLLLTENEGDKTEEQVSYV
D(3) dopamine receptor, sequence (P35462 whole entry): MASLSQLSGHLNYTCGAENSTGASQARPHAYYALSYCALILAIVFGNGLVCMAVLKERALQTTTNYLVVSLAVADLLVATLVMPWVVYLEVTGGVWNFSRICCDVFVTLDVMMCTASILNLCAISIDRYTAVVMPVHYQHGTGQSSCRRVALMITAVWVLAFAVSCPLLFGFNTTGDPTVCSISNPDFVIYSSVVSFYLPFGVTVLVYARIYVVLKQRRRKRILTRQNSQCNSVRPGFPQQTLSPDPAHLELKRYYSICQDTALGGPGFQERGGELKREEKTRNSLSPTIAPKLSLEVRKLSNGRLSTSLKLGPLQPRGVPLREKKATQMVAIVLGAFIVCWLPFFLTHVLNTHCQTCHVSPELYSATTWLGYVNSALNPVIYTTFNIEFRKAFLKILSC

HYDROXOCOBALAMIN was tested, and the AC50 [1] was > 30 µM, the AC50 [2] was > 30 µM and the AC50 [3] was > 30 µM. For the same compound, the AC50 [4] was > 30 µM, the AC50 [5] was > 30 µM and the AC50 [6] was > 30 µM. For the same compound, the AC50 [7] was > 30 µM, the AC50 [8] was > 30 µM and the AC50 [9] was > 30 µM. For the same compound, the AC50 [10] was > 30 µM, the AC50 [11] was 20 µM and the AC50 [12] was > 30 µM. For the same compound, the AC50 [13] was > 30 µM.
`Nc1ccc(S(N)(=O)=O)cc1` [SULFANILAMIDE] was tested, and the AC50 [14] was > 30 µM.
`CN(C)c1ccc(C(=C2C=CC(=[N+](C)C)C=C2)c2ccc(N(C)C)cc2)cc1` [GENTIAN VIOLET] showed an AC50 [15] of 11.8 µM, an AC50 [16] of 20.8 µM and an AC50 [17] of 1.21 µM.
